Like-named read-outs stand apart in the source and are kept apart here.
Columns and labels:
GtfB = GtfB (Amycolatopsis orientalis, UniProt P96559); assay: biochemical
Method: Inhibitors, dissolved in DMSO, were added at the indicated concentrations to 20 μL reactions containing 50 nM GtfB, 2 mM UDP-glucose, 75 mM Tricine (pH 9), 4 mM TCEP and 600 μM vancomycin aglycone. For consistency, all reactions contained 5% DMSO. Reactions were incubated at 37° C. for 1.5 hr, then quenched with 20 μL cold methanol and centrifuged at 13,000 rpm for 10 min. Reaction mixtures were resolved by analytical HPLC, using a gradient of 0-45% acetonitrile in water/0.1% TFA over 15 min, at a flow rate of 1 mL per minute. Product formation was monitored by UV absorbance at 285 nm.

OGT = molecular target: T1, OGT (Homo sapiens, UniProt O15294); assay: Assay for OGT; format: biochemical
T1 construct: His tag; made in house; host or cells: E. coli BL21 (DE3) (Novagen)
T1 sequence (O15294 51-920 isoform O15294-2 limits assumed): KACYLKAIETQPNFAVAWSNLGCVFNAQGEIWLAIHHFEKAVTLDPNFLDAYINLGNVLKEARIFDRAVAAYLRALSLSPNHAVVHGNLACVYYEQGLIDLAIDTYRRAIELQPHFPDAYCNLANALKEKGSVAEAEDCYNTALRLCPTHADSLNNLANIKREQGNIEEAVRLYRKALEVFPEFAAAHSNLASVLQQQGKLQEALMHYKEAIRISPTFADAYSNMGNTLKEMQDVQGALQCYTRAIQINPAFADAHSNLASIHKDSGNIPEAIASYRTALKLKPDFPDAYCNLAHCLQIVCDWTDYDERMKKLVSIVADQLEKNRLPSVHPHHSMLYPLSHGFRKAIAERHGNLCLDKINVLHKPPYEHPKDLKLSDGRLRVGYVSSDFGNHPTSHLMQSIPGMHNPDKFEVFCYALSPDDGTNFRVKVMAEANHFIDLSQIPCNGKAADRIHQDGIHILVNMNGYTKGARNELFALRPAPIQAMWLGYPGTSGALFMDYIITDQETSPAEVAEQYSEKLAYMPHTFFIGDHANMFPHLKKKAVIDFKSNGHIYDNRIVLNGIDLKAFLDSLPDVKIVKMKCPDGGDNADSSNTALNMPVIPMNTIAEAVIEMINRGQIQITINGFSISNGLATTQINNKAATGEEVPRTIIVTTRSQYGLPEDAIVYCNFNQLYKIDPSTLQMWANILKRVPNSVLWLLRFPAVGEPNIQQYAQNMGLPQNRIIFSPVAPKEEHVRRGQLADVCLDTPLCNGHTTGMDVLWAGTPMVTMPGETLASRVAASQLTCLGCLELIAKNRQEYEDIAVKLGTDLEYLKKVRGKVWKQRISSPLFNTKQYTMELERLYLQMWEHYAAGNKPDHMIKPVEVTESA
Method: The mitochondrial splice variant of OGT, minus the first 50 amino acids, was cloned into pET 32b, and expressed from Novagen BL21 (DE3) cells. The pellet was lysed with B-PER (Pierce) and rLysozyme (Novagen) and the soluble fraction was purified using His-Bind Resin (Novagen). Assay reaction buffer was 10 mM Tris pH 7.4 with 100 μg/mL BSA. […] Inhibitors tested were added in 0.5 μL of DMSO and the final reaction volume was 20 μL. The reactions were quenched after 50 min at room temperature with 10 μL of formic acid and spotted onto phosphocellulose (Whatman P81) paper disks. The disks were washed for 3×5 min with 1% phosphoric acid, 1 min with acetone and dried before counting. The samples were measured by liquid scintillation counting.

PBP1b = PBP1b (Escherichia coli, UniProt P02919); assay: Assays for transglycosylase PBP1b; format: biochemical
Sequence of PBP1b (P02919 whole entry): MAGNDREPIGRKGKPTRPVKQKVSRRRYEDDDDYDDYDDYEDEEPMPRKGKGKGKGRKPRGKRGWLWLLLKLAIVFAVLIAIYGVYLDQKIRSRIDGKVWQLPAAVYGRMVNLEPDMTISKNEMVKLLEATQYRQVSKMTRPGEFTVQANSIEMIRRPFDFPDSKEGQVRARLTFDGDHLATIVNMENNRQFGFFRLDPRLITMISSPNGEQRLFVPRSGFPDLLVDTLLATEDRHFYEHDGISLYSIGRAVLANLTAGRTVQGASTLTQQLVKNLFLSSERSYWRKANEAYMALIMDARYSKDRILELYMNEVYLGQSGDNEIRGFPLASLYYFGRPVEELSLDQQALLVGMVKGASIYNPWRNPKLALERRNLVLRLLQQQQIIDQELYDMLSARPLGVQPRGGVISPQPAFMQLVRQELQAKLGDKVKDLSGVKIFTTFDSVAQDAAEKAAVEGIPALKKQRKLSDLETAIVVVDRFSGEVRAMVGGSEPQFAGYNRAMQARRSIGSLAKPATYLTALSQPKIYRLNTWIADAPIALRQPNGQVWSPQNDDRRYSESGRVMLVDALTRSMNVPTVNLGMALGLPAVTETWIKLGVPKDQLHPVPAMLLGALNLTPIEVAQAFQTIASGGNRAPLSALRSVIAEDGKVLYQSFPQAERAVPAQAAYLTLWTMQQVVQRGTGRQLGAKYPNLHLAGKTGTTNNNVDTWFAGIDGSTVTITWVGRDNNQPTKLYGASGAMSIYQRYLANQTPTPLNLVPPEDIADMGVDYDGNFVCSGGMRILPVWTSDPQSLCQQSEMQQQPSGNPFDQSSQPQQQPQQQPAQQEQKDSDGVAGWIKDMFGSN
Method: The protein was purified as described. Chen, L., Men, H., Ha, S., Ye, X.-Y., Brunner, L., Hu, Y., Walker, S. Biochemistry 2002; Tetrahedron 58, 6585 (2002). Assays were carried out by separately incubating varying amounts of ^14C-GlcNAc-labeled C35 Lipid II (specific activity=273 cpm/pmol) and inhibitors in eppendorf tubes containing 9 μL of buffer (50 mM HEPES at pH 7.5, 10 mM CaCl2, 1000 U/mL penicillin G, 0.2 mM decyl PEG, and 11% DMSO), and 1 μL PBP1b (from a solution freshly prepared by diluting the 50% glycerol stock 20-fold into 5 mM Tris buffer, pH 8.0, containing 8 mM decyl PEG) for 10 min. Reactions were started by adding 1 μL of the above PBP1b mixture to the substrate solution, and were typically stopped after 15 min by adding 10 μL ice cold 10 mM Tris (pH 8.0) containing 0.2% Triton X-100. Reactions were left on ice until spotted on cellulose chromatography paper (3M Whatman chromatography paper). Products and starting material were separated following the works of Anderson et al. using chromatography (isobutyric acid: 1N NH4OH=5:3) and quantitated by scintillation counting. Biochemistry 53, 881 (1965).

MurG [1] = molecular target: T2, MurG (Escherichia coli, UniProt P17443); assay: radiometric kinetic assay (incorporation of 14C-GlcNAc into Lipid II), secondary screen and IC50; format: biochemical, E. coli; details: for inhibition pattern with respect to UDP-GlcNAc: kinetic analysis
T2 sequence (P17443 whole entry): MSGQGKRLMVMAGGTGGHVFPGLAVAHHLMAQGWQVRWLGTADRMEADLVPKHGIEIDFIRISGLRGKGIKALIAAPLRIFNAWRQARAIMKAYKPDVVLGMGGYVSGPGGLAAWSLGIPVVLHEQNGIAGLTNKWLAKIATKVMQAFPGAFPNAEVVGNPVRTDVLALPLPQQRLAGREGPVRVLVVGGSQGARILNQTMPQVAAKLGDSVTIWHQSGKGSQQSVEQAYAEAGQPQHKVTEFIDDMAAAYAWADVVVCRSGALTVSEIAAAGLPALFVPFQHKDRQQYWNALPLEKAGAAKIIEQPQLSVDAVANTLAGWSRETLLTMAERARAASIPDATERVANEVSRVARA

MurG [2] = molecular target: T2, MurG; assay: fluorescence polarization displacement assay with labeled donor F1; format: binding, E. coli; details: for Signal change at 25 μM (drop in fluorescence polarization): 25 μM competitor; for Kd: read-out: Dissociation constants
MurG [3] = molecular target: T2, MurG; details: biotin-capture assay, C10-Lipid I acceptor; cited from earlier work

Sequence of GtfB (P96559 whole entry): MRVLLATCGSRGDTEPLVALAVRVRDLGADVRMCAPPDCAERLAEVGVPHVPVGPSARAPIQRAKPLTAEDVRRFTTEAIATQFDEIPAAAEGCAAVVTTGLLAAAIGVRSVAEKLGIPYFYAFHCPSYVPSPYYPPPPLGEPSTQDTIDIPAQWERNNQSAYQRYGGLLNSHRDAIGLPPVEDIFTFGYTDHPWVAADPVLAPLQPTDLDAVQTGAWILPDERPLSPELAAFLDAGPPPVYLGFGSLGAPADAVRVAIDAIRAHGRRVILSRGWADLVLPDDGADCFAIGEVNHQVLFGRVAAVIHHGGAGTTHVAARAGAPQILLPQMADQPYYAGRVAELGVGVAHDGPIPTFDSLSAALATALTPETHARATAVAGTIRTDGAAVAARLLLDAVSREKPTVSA

Compound | IC50 (GtfB) | IC50 (OGT; read-out: IC50 OGT) | IC50 (PBP1b; read-out: IC50 PBP1b) | IC50 (MurG [1]) | Signal change at 25 μM (drop in fluorescence polarization) (MurG [2]) | Kd (MurG [2]; displacement of F1 from MurG) | IC50 (MurG [3]) | further results
O=C1/C(=C2/C(=O)N(Cc3ccccc3)c3ccc(Br)cc32)SC(=S)N1CCS(=O)(=O)O [Compound 3] | 15 µM | > 100 µM | > 100 µM | 3.5 µM |  |  |  | 
CC(C)(C)c1ccc(OCCOc2cccc(C=C3C(=O)NC(=S)NC3=O)c2)cc1 [Compound 6] | 100 µM |  |  | 4 µM |  |  |  | IC50 (OGT): > 100 µM; IC50 (PBP1b): > 100 µM
Nc1ncnc2c1ncn2[C@@H]1O[C@H](COP(=O)(O)OP(=O)(O)O)[C@@H](O)[C@H]1O [ADP] |  |  |  |  | <10% | 88.2 ± 26.9 µM | 1260 ± 300 µM | 
Cc1cc(/C=C2\C(=O)NC(=S)N(c3cccc(Cl)c3)C2=O)c(C)n1-c1cc(C(=O)O)cc(C(=O)O)c1 [Compound 5] | 50 µM |  |  | 1.4 µM |  |  |  | IC50 (OGT): > 100 µM; IC50 (PBP1b): > 100 µM; inhibition pattern with respect to UDP-GlcNAc (MurG [1]): competitive inhibitors
O=C(O)c1ccc(N2C(=O)/C(=C/c3ccc(-c4ccc(Br)cc4)o3)C=C2c2ccccc2)cc1 [Compound 7] | 100 µM | > 100 µM | > 100 µM | 5.4 µM |  |  |  | inhibition pattern with respect to UDP-GlcNAc (MurG [1]): competitive inhibitors
O=C(O)CN1C(=O)/C(=C\c2cc(Cl)cc(Br)c2O)SC1=S [Compound 2] | 4 µM | > 100 µM | > 100 µM | 3.4 µM |  |  |  | 
CC(=O)N[C@H]1[C@@H](OP(=O)(O)OP(=O)(O)OC[C@H]2O[C@@H](n3ccc(=O)[nH]c3=O)[C@H](O)[C@@H]2O)O[C@H](CO)[C@@H](O)[C@@H]1O [UDP-GlcNAc, UDP-N-acetylglucosamine] |  |  |  |  |  | 1.8 ± 0.2 µM |  | 
O=c1ccn([C@@H]2O[C@H](COP(=O)(O)O)[C@@H](O)[C@H]2O)c(=O)[nH]1 [UMP] |  |  |  |  | <10% | 99.6 ± 12.2 µM | 600 ± 50 µM | 
O=C1NC(=O)N(c2ccc(Cl)cc2)C(=O)/C1=C/c1ccc(Br)o1 [Compound 4] | 11 µM |  |  | 6.4 µM |  |  |  | IC50 (OGT): > 100 µM; IC50 (PBP1b): > 100 µM
CC(=O)N[C@H]1[C@@H](OP(=O)(O)OP(=O)(O)OC[C@H]2O[C@@H](n3ccc(=O)[nH]c3=O)[C@H](O)[C@@H]2O)O[C@H](CO)[C@H](O)[C@@H]1O [UDP-GalNAc] |  |  |  |  | 10% | 73.1 ± 14.1 µM | > 1000 µM | 
O=c1ccn([C@@H]2O[C@H](COP(=O)(O)OP(=O)(O)O)[C@@H](O)[C@H]2O)c(=O)[nH]1 [UDP, uridine diphosphate] |  |  |  |  | 50% |  | 65 ± 1 µM | polarization reading relative to wells containing only MurG and labeled donor (MurG [2]; 25 μM UDP control well): approximately 50%; Kd (MurG [2]): 2.6 ± 0.2 µM; inhibition at 5 µM (MurG [1]; read-out: inhibition of MurG reaction (drop in product formation)): 50%
CC1CCN(CN2C(=O)/C(=C\c3ccc(C(C)(C)C)cc3)SC2=S)CC1 [Compound 1, 5-(4-tert-Butyl-benzylidene)-3-(4-methyl-piperidin-1-ylmethyl)-2-thioxo-thiazolidin-4-one] | 15 µM | > 100 µM | > 100 µM | 1.4 µM |  |  |  | inhibition pattern with respect to UDP-GlcNAc (MurG [1]): competitive inhibitors

From US7344850B2, “Identification of active-site inhibitors of glycosyltransferases using a generalizable high-throughput screen” (Princeton University, priority 2003, dated 2008)
